Experimental data: BindingDB's records for doi:10.1111/j.1476-5381.1994.tb14064.x (Glaxo Group Research, 1994)

How the values were obtained:
Histamine H1 receptor = Histamine H1 receptor (Rattus norvegicus, UniProt P31390)
[1] = biological target: Kappa-type opioid receptor (Rattus norvegicus, UniProt P34975)
Neuromedin-K receptor = Neuromedin-K receptor (Mus musculus, UniProt P47937)
Hrh3 protein = Hrh3 protein (Rattus norvegicus, UniProt Q5PPG3)
[2] = biological target: Beta-1 adrenergic receptor (Rattus norvegicus, UniProt P18090)
Somatostatin = Somatostatin (Rattus norvegicus, UniProt P60042)
B1 bradykinin receptor = B1 bradykinin receptor (Rattus norvegicus, UniProt P97583)
[3] = biological target: Muscarinic acetylcholine receptor M2 (Rattus norvegicus, UniProt P10980)
[4] = biological target: Alpha-1A adrenergic receptor (Rattus norvegicus, UniProt P43140)
[5] = biological target: Gastrin/cholecystokinin type B receptor (Rattus norvegicus, UniProt P30553)
[6] = biological target: Gamma-aminobutyric acid (GABA) B receptor 1 (Rattus norvegicus, UniProt Q6MFX8)
[7] = biological target: Bombesin receptor subtype-3 (Rattus norvegicus, UniProt Q8K418)
Galanin peptides = Galanin peptides (Rattus norvegicus, UniProt P10683)
[8] = biological target: 5-hydroxytryptamine receptor 2C (Sus scrofa, UniProt K7GSR7)
Adenosine receptor A1 = Adenosine receptor A1 (Rattus norvegicus, UniProt P25099)
D(2) dopamine receptor = D(2) dopamine receptor (Rattus norvegicus, UniProt P61169)
Adenosine receptor A2a = Adenosine receptor A2a (Rattus norvegicus, UniProt P30543)
[9] = biological target: Gamma-aminobutyric acid receptor subunit alpha-1 (Rattus norvegicus, UniProt P62813)
[10] = biological target: Muscarinic acetylcholine receptor M1 (Rattus norvegicus, UniProt P08482)
Mu-type opioid receptor = Mu-type opioid receptor (Rattus norvegicus, UniProt P33535)
[11] = biological target: Glycine amidinotransferase, mitochondrial (Rattus norvegicus, UniProt P50442)
[12] = biological target: Calcitonin gene-related peptide 1 (Rattus norvegicus, UniProt P01256)
[13] = biological target: Endothelin-converting enzyme 1 (Rattus norvegicus, UniProt P42893)
[14] = biological target: Beta-2 adrenergic receptor (Cavia porcellus, UniProt Q8K4Z4)
[15] = biological target: Glutamate receptor ionotropic, NMDA 1 (Rattus norvegicus, UniProt P35439)
Pro-neuropeptide Y = Pro-neuropeptide Y (Rattus norvegicus, UniProt P07808)
[16] = biological target: Nicotinic acetylcholine receptor (Rattus leucopus, UniProt Q62594)
[17] = biological target: Muscarinic acetylcholine receptor M3 (Rattus norvegicus, UniProt P08483)
VIP peptides = VIP peptides (Rattus norvegicus, UniProt P01283)
[18] = biological target: Alpha-2C adrenergic receptor (Rattus norvegicus, UniProt P22086)
Substance-K receptor = Substance-K receptor (Rattus norvegicus, UniProt P16610)
[19] = biological target: Rat vasopressin-neurophysin (Rattus norvegicus, UniProt Q6LEI5)
D(1A) dopamine receptor = D(1A) dopamine receptor (Rattus norvegicus, UniProt P18901)
Substance-P receptor = Substance-P receptor (Rattus norvegicus, UniProt P14600)
[20] = biological target: 5-hydroxytryptamine receptor 3A (Rattus norvegicus, UniProt P35563)
Vasopressin V2 receptor = Vasopressin V2 receptor (Rattus norvegicus, UniProt Q00788)
Vasopressin V2 receptor, sequence (Q00788 whole entry): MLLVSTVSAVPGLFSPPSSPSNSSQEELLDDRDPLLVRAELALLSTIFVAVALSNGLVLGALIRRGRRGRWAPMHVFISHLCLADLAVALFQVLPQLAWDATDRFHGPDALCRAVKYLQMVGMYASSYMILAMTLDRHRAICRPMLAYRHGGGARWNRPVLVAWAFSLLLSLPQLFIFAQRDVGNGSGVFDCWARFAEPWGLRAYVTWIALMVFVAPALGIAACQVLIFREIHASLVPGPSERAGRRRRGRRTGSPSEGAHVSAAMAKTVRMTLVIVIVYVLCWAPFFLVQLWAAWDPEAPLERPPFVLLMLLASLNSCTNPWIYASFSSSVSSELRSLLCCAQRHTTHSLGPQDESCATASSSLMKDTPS

Substance-K receptor, sequence (P16610 whole entry): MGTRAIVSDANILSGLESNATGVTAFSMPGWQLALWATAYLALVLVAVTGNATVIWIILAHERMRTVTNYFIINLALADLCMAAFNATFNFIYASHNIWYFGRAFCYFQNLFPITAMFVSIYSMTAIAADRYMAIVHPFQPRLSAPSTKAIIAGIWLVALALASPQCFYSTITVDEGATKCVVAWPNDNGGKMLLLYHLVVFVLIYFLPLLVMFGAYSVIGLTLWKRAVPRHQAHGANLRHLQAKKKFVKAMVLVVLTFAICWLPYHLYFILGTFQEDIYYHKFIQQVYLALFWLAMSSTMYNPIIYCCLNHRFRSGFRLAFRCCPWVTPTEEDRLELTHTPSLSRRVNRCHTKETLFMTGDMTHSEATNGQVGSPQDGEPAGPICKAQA
Endothelin-converting enzyme 1, sequence (P42893 whole entry): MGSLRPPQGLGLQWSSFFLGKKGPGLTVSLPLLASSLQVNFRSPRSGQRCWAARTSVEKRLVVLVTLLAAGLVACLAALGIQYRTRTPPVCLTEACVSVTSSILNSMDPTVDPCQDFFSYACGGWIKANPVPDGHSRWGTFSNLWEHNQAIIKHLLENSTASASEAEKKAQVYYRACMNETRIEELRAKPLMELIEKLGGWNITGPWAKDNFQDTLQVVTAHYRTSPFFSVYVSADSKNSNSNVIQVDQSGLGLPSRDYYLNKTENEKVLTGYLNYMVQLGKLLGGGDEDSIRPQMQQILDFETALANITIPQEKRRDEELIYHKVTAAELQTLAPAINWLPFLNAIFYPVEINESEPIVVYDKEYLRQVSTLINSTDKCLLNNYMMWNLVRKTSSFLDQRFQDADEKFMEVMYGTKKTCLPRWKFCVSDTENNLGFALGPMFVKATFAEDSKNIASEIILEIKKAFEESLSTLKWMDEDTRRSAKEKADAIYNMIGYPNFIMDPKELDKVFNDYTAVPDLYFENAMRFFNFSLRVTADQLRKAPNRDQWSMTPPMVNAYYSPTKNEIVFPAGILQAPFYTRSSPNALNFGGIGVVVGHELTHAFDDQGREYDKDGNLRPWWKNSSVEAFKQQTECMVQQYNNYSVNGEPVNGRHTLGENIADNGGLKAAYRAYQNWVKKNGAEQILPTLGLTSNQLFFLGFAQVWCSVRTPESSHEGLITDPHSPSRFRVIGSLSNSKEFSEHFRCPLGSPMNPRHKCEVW
Alpha-2C adrenergic receptor, sequence (P22086 whole entry): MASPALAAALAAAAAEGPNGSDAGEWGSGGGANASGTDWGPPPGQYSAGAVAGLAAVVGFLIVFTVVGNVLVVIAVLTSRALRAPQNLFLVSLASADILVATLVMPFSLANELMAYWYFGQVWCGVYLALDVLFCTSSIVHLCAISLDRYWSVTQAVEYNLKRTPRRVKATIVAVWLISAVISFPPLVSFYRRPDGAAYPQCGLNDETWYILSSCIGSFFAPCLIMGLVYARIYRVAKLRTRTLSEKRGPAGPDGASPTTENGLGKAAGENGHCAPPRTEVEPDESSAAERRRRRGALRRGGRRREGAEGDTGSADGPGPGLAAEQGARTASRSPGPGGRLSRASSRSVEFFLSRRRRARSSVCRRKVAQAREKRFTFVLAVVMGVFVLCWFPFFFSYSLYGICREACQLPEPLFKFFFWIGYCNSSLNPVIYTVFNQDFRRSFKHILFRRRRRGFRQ
Beta-2 adrenergic receptor, sequence (Q8K4Z4 whole entry): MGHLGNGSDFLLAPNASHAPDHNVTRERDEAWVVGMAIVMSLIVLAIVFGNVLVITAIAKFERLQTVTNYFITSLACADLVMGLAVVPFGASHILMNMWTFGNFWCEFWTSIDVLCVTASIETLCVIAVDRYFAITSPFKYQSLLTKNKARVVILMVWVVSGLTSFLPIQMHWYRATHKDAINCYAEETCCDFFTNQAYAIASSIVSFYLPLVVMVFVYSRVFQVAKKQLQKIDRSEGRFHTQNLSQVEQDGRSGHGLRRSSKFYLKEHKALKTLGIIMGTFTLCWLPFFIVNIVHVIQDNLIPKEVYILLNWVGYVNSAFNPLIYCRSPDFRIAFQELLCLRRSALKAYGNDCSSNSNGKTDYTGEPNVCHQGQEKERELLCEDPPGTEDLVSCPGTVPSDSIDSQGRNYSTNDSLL
Substance-P receptor, sequence (P14600 whole entry): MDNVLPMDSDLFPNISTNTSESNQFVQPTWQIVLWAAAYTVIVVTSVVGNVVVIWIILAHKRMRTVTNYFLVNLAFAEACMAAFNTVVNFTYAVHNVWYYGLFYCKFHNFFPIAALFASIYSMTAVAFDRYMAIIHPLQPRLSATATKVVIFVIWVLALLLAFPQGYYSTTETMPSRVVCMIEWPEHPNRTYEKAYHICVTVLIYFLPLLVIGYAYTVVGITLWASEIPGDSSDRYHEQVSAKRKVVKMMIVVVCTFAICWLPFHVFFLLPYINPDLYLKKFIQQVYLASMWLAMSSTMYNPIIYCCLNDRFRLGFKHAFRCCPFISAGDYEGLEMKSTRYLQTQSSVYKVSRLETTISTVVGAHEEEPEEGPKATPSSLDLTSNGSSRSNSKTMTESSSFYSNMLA
Galanin peptides, sequence (P10683 33-61 limits assumed): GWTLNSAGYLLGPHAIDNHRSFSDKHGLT
Hrh3 protein, sequence (Q5PPG3 whole entry): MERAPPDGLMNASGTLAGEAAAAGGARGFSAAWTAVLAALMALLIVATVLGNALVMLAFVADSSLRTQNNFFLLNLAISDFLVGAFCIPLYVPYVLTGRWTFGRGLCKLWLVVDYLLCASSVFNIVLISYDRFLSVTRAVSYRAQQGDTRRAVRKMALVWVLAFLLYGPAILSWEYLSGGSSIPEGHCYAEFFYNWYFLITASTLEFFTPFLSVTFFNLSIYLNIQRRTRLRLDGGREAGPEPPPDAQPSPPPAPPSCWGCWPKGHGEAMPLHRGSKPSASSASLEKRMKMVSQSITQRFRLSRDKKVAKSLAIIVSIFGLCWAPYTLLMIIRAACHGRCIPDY
Kappa-type opioid receptor, sequence (P34975 whole entry): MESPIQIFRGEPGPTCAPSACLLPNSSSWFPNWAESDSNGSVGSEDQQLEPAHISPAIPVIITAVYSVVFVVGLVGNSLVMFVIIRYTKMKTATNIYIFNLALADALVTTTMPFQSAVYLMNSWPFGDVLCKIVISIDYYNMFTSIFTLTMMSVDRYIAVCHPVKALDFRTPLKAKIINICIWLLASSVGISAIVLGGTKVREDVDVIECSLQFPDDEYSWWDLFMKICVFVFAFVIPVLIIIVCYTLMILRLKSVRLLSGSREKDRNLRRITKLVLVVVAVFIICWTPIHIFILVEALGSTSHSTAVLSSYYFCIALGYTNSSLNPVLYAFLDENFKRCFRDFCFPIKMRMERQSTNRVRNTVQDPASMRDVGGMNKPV
5-hydroxytryptamine receptor 2C, sequence (K7GSR7 whole entry): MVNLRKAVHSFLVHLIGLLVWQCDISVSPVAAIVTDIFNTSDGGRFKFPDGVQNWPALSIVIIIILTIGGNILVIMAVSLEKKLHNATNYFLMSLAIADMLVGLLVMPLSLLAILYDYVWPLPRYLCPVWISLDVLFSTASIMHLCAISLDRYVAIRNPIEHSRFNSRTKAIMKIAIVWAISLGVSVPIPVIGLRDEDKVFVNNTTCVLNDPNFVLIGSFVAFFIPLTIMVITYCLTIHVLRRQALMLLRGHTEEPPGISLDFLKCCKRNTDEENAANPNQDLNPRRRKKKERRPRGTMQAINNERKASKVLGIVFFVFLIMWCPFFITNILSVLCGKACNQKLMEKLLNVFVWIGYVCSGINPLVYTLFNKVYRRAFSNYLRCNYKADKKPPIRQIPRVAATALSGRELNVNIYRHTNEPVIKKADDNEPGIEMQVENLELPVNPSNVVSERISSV
Gamma-aminobutyric acid receptor subunit alpha-1, sequence (P62813 whole entry): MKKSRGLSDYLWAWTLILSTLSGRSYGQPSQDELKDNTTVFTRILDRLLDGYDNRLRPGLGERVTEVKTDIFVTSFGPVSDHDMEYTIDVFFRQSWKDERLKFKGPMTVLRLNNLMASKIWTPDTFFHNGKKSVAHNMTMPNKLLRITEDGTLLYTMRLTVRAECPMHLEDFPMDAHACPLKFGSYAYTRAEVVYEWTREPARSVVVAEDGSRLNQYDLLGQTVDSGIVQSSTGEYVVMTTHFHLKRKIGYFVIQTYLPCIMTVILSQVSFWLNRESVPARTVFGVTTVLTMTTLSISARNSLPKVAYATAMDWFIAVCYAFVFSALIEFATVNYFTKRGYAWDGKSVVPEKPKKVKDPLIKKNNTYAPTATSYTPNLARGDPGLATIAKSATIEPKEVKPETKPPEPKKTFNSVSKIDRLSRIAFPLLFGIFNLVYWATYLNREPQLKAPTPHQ
Mu-type opioid receptor, sequence (P33535 whole entry): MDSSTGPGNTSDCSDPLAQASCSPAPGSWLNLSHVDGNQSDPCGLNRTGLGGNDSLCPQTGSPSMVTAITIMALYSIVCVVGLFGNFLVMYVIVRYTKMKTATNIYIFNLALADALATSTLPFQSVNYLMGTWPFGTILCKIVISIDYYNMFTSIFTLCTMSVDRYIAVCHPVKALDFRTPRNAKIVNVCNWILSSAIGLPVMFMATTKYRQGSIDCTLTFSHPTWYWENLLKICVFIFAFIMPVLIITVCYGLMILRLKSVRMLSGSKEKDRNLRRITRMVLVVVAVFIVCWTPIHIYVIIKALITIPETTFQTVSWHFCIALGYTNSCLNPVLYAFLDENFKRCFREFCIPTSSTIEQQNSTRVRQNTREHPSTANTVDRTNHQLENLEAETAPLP

Cn1cc(C(=O)OCC2CCN(CCNS(C)(=O)=O)CC2)c2ccccc21 [GR 113808]
Ki (Histamine H1 receptor): > 10 µM | Ki [1]: > 10 µM | Ki (Neuromedin-K receptor): > 10 µM | Ki (Hrh3 protein): > 10 µM | Ki [2]: 7.94 µM | Ki (Somatostatin): > 10 µM | Ki (B1 bradykinin receptor): > 10 µM | Ki [3]: > 10 µM | Ki [4]: > 10 µM | Ki [5]: > 10 µM | Ki [6]: > 10 µM | Ki [7]: > 10 µM | Ki (Galanin peptides): > 10 µM | Ki [8]: > 10 µM | Ki (Adenosine receptor A1): > 10 µM | Ki (D(2) dopamine receptor): > 10 µM | Ki (Adenosine receptor A2a): > 10 µM | Ki [9]: > 10 µM | Ki [10]: 6.31 µM | Ki (Mu-type opioid receptor): > 10 µM | Ki [11]: > 10 µM | Ki [12]: > 10 µM | Ki [13]: > 10 µM | Ki [14]: > 10 µM | Ki [15]: > 10 µM | Ki (Pro-neuropeptide Y): > 10 µM | Ki [16]: > 10 µM | Ki [17]: > 10 µM | Ki (VIP peptides): > 10 µM | Ki [18]: > 10 µM | Ki (Substance-K receptor): > 10 µM | Ki [19]: > 10 µM | Ki (D(1A) dopamine receptor): > 10 µM | Ki (Substance-P receptor): > 10 µM | Ki [20]: 1 µM | Ki (Vasopressin V2 receptor): > 10 µM
